Results published in patent publication US11286236B2, “Compound, agent and composition for the suppression of cancer growth” (Vector Vitale IP LLC, priority 2018, dated 2022).
Where a name gives a salt, the structure may show the parent alone.

Experiments:
Format in all cases: cell-based
[1] = tested on: Mouse B16 melanoma cells (MM-4 cell line); assay: Cytotoxic/cytostatic activity of E2+85Rbe and antitumor drug added simultaneously
Method: The effects of the complex action of various doses of the investigated substances were evaluated using the concept of synergistic, additive and antagonistic effects of the drugs. The mathematics are detailed below. […] The effects were calculated using the Chou-Talalay method according to the following equation (“CI” refers to the “combination index”) (see T.-C. […] Where both the ^85Rb-enriched rubidium salt (referred to as “E2+^85Rbe”) and an AD were administered, they were administered simultaneously.

[2] = tested on: Mouse melanoma cells (MM-4 cell line); assay: Cytotoxic effect of E2+85Rbe and antitumor drug added 24 hours apart
Method: The effectiveness of the method of the invention that comprises administering antitumor drugs and ^85Rb-enriched rubidium salt of N-benzoyl-N-(4-toluenesulfonyl)-o-phenylenediamine of formula I was measured in the experiment. […] Both orders were tested: AD administered first (Scheme 2, below), and AD administered second (Scheme 1, below).
Materials and Methods: Mouse melanoma cells (MM-4 cell line) were seeded into 96-well plates (TPP, Italy), in DMEM (Biowest, France) supplemented with 10% newborn calf serum (Biowest, France) and […] gentamicin (Sigma, USA) at a seeding density of 5×10^4 cells/ml. The cells were then cultured in an incubator with a humidified atmosphere of 5% CO2 in air at 37° C. The experiment was carried out in accordance with the three schemes given below. The experiment was started 24 hours after the cells were seeded. For this purpose, the agents used in the method were introduced into the appropriate wells. The following schemes of introduction were used for the study:
Scheme 1) The ^85Rb-enriched rubidium salt of N-benzoyl-N′-(4-toluenesulfonyl)-o-phenylenediamine of formula I was introduced at the first stage in the following amounts: 2.0 μg/ml, 1.0 μg/ml, 0, 5 μg/ml, and one antitumor drug was introduced at the second stage (after 24 hours).
Scheme 2) An AD was introduced at the first stage at doses as indicated in Scheme 1 above and ^85Rb-enriched rubidium salt of N-benzoyl-N′-(4-toluenesulfonyl)-o-phenylenediamine of formula I was introduced at the second stage (after 24 hours) at the following doses: 2.0 μg/ml, 1.0 μg/ml, 0.5 μg/ml.
After all the agents were added into the wells, the cells were incubated at 37° C. and 5% CO2 for another 72 hours (96 hours in total after the cells were seeded).
As in example 2, the cytotoxic effect was determined as the percentage of the cell number with respect to the control after their treatment in accordance with the claimed method. The effects of the drugs were evaluated visually, which allowed us to examine the morphological pattern of the cytotoxic action of the drugs, and by staining the cells with crystal violet, followed by OD measurement at an excitation wavelength of 540 nm using a MultiSkan microplate spectrophotometer.
The effects of the complex action of various doses of the investigated substances were evaluated using the concept of synergistic, additive and antagonistic effects of the drugs, as for Example 2, and calculating CI as described in Example 2.
Each table sets forth the % of MM-4 cells that survived in the presence of the drug doses indicated in the in vitro experiments described above, expressed as a percentage of the cells in the control wells.

[3] = tested on: Mouse melanoma cells (MM-4 cell line); assay: Cytotoxic effect on melanoma cells, single agents (crystal violet)
Method: Materials and Methods: Mouse melanoma cells (MM-4 cell line) were seeded into 96-well plates (TPP, Italy) in DMEM (High Glucose w/L-Glutamine w/o Sodium Pyruvate; Biowest, France) supplemented with 10% newborn calf serum (Biowest, France) and […] gentamicin (Sigma, USA) at a seeding density of 5×10^4 cells/ml. The cells were then cultured in an incubator with a humidified atmosphere of 5% CO2 in air at 37° C. 24 hours after the cells were seeded, a compound according to the invention that comprises ^85Rb-enriched rubidium salt of N-benzoyl-N′-(4-toluenesulfonyl)-o-phenylenediamine of formula I was added into the appropriate wells. ^85Rbe-E2 was used at the following doses: 2.0 μg/ml, 1.0 μg/ml, 0.5 μg/ml (each is the final concentration of ^85Rbe after addition to the well). The cytotoxic effect was determined by counting the number of live cells observed after treatment, expressed as a percentage of the number of live cells observed/counted in the control (cells seed in the well and not treated). Control cells were not treated. For each concentration, the experiment was carried out twice. The effects of the drugs were evaluated visually, which allowed us to examine the morphological pattern of the cytotoxic action of the drugs, and by staining the cells with crystal violet, followed by OD measurement at an excitation wavelength of 540 nm using a MultiScan spectrophotometer. For comparison, a parallel experiment was carried out with the use of a known antitumor drug cisplatin and a compound of rubidium salt of N-benzoyl-N′-(4-toluenesulfonyl)-o-phenylenediamine of formula I which comprised a naturally-abundant mixture of isotopes of rubidium instead of being enriched for the ^85Rb isotope.

Cc1ccc(S(=O)(=O)Nc2ccccc2NC(=O)c2ccccc2)cc1 [^85Rbe − E2, ^85Rb-enriched rubidium salt of N-benzoyl-N′-(4-toluenesulfonyl)-o-phenylenediamine]
% surviving MM-4 cells ([1]; E2+85Rbe 0.5 μg/ml alone): 32.3 ± 0.7%
% surviving MM-4 cells ([1]; E2+85Rbe 1 μg/ml alone): 8.3 ± 0.5%
% surviving MM-4 cells ([1]; E2+85Rbe 2 μg/ml alone): 6.4 ± 0.3%
% surviving MM-4 cells ([2]; E2+85Rbe 0.5 μg/ml alone, first stage): 32.3 ± 0.7%
% surviving MM-4 cells ([2]; E2+85Rbe 0.5 μg/ml alone, second stage (24 h later)): 51 ± 1%
% surviving MM-4 cells ([2]; E2+85Rbe 1 μg/ml alone, first stage): 8.3 ± 0.5%
% surviving MM-4 cells ([2]; E2+85Rbe 1 μg/ml alone, second stage (24 h later)): 19 ± 0.5%
% surviving MM-4 cells ([2]; E2+85Rbe 2 μg/ml alone, first stage): 6.4 ± 0.3%
% surviving MM-4 cells ([2]; E2+85Rbe 2 μg/ml alone, second stage (24 h later)): 17.7 ± 0.8%
Number of cells after their treatment with the drug, % ([3]; 0.5 μg/ml of rubidium (85Rbe or Rb)): 32.3 ± 0.7%
Number of cells after their treatment with the drug, % ([3]; 1.0 μg/ml of rubidium (85Rbe or Rb)): 8.3 ± 0.5%
Number of cells after their treatment with the drug, % ([3]; 2.0 μg/ml of rubidium (85Rbe or Rb)): 6.4 ± 0.3%

N.N.[Cl][Pt][Cl] [cisplatin]
% surviving MM-4 cells ([1]; cisplatinum 0.5 μg/ml alone): 84 ± 3.3%
% surviving MM-4 cells ([1]; cisplatinum 1 μg/ml alone): 51.7 ± 6.9%
% surviving MM-4 cells ([1]; cisplatinum 2.5 μg/ml alone): 24.6 ± 5.2%
% surviving MM-4 cells ([1]; cisplatinum 5 μg/ml alone): 13.8 ± 1.2%
% surviving MM-4 cells ([1]; cisplatinum 10 μg/ml alone): 2.6 ± 1.4%
% surviving MM-4 cells ([2]; cisplatinum 0.5 μg/ml alone, first stage): 84 ± 3.3%
% surviving MM-4 cells ([2]; cisplatinum 0.5 μg/ml alone, second stage): 84.6 ± 3.5%
% surviving MM-4 cells ([2]; cisplatinum 1 μg/ml alone, first stage): 51.7 ± 6.9%
% surviving MM-4 cells ([2]; cisplatinum 1 μg/ml alone, second stage): 70 ± 3.6%
% surviving MM-4 cells ([2]; cisplatinum 2.5 μg/ml alone, first stage): 24.6 ± 5.2%
% surviving MM-4 cells ([2]; cisplatinum 2.5 μg/ml alone, second stage): 34 ± 2.6%
% surviving MM-4 cells ([2]; cisplatinum 5 μg/ml alone, first stage): 13.8 ± 1.2%
% surviving MM-4 cells ([2]; cisplatinum 5 μg/ml alone, second stage): 35.2 ± 3.3%
% surviving MM-4 cells ([2]; cisplatinum 10 μg/ml alone, first stage): 2.6 ± 1.4%
% surviving MM-4 cells ([2]; cisplatinum 10 μg/ml alone, second stage): 19.4 ± 0.9%
Number of cells after their treatment with the drug, % ([3]; cisplatin 0.5 μg/ml): 84 ± 3.3%
Number of cells after their treatment with the drug, % ([3]; cisplatin 1.0 μg/ml): 51.7 ± 6.9%
Number of cells after their treatment with the drug, % ([3]; cisplatin 2.5 μg/ml): 24.6 ± 5.2%
Number of cells after their treatment with the drug, % ([3]; cisplatin 5 μg/ml): 13.8 ± 1.2%
Number of cells after their treatment with the drug, % ([3]; cisplatin 10 μg/ml): 2.6 ± 1.4%
